Experimental data from publication PMC5615432, “HM71224, a selective Bruton’s tyrosine kinase inhibitor, attenuates the development of murine lupus” (Arthritis Research & Therapy, 2017).

Target: Bruton's tyrosine kinase (BTK) (Homo sapiens, UniProt Q06187)
Assay: immunoblot of BTK Y223 autophosphorylation in anti-IgM-stimulated Ramos cells
Type: cell-based

Bruton's tyrosine kinase (BTK), sequence (Q06187 2-659): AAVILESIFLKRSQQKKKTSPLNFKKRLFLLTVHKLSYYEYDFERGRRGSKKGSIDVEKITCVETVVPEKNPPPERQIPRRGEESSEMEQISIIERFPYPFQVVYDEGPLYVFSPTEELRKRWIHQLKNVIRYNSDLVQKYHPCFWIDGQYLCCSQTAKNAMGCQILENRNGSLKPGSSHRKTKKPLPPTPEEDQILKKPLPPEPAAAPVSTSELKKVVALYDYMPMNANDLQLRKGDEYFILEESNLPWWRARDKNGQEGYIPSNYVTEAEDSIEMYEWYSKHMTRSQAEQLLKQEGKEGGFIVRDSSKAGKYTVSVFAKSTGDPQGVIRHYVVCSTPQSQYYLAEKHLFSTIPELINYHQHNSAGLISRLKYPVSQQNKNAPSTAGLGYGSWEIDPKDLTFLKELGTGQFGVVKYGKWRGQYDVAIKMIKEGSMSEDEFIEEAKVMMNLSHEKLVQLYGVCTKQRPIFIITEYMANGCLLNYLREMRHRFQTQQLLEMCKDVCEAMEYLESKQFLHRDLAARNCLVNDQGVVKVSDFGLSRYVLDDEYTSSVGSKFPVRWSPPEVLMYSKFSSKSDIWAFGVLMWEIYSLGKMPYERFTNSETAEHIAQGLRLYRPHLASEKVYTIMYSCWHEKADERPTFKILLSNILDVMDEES

## C=CC(=O)Nc1cccc(Oc2nc(Nc3ccc(N4CCN(C)CC4)cc3)nc3ccoc23)c1 [HM71224]
  IC50: < 10 nM
